Laboratory results as given in patent US10654834B2 (Venenum Biodesign, LLC, priority 2016, dated 2020).

Columns and labels:
human TGR5 receptor = target: T1, human TGR5 receptor (Homo sapiens, UniProt Q8TDU6); assay: Human TGR5 cAMP production assay (hTGR5-CHO cells, DiscoveRx cAMP XS+ kit); format: cell-based; conditions: luminescent cAMP assay, read-out: Human TGR5 Lum. cAMP Activity (EC50)
T1 construct: host or cells: CHO-K1 (hTGR5-CHO)
T1 sequence (Q8TDU6 1-330): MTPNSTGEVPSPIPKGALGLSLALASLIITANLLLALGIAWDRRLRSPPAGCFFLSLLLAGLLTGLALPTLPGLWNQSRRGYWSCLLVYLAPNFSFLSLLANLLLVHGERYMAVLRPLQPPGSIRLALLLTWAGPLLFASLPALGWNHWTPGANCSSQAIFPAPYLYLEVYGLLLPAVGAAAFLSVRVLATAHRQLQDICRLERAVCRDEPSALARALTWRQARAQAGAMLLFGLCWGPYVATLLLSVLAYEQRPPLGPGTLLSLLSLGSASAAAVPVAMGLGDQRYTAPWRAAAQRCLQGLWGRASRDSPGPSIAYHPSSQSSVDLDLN
Summary of the method: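 CHO-K1 cells stably expressing hTGR5, in PBS with IBMX and cAMP antibody, treated with half-log compound dilutions for 1 h at room temperature. cAMP measured by enzyme-fragment complementation luminescence after overnight detection; EC50 values reported.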

Mouse STC-1 cells = assay: STC-1 GLP-1 assay (GLP-1 secretion); format: cell-based; conditions: Mouse STC-1 cells, GLP-1 secretion, 2 h; read-out: Mouse STC-1 HTRF GLP-1 Activity (EC50)
Summary of the method: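 Mouse STC-1 cells were plated two days ahead in DMEM with 10% charcoal-dextran stripped FBS, then exposed to compound in HBSS with protease inhibitors, DPP-IV inhibitor and 0.1% fatty acid free BSA for 2 h at 37° C. Active GLP-1 in supernatant was quantified by HTRF; EC50 derived from 12-point half-log curves.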

EC50 (human TGR5 receptor)	EC50 (Mouse STC-1 cells)	SMILES
< 100 nM	< 100 nM	N#Cc1ccc(CCNC(=O)[C@@H]2CCN2c2cc(N3CCC(CCNC(=O)NCCOCCNC(=O)NCCS(=O)(=O)O)CC3)nc(C(F)(F)F)n2)cc1 [Compound 358, (S)-15-(1-(6-(2-((4-cyanophenethyl)carbamoyl)azetidin-1-yl)-2-(trifluoromethyl)pyrimidin-4-yl)piperidin-4-yl)-4,12-dioxo-8-oxa-3,5,11,13-tetraazapentadecane-1-sulfonic acid]
< 100 nM	100 to 999 nM	N#Cc1ccc(CCNC(=O)[C@@H]2CCCN2c2cc(N3CCC(CCNS(=O)(=O)CCNC(=O)[C@@H](N)CS(=O)(=O)O)CC3)nc(C(F)(F)F)n2)cc1 [Compound 125, (R)-2-amino-3-((2-(N-(2-(1-(6-((S)-2-((4-cyanophenethyl)carbamoyl)-pyrrolidin-1-yl)-2-(trifluoromethyl)-pyrimidin-4-yl)piperidin-4-yl)ethyl)sulfamoyl)ethyl)amino)-3-oxopropane-1-sulfonic acid]
< 100 nM	100 to 999 nM	N#Cc1ccc(CCNC(=O)[C@@H]2CCCN2c2cc(N3CCC(CCCC(=O)O)CC3)nc(C(F)(F)F)n2)cc1 [Compound 29]
< 100 nM	< 100 nM	N#Cc1ccc(CCNC(=O)[C@@H]2CCCN2c2cc(N3CCC(CCNC(=O)[C@@H](N)CS(=O)(=O)O)CC3)nc(C(F)(F)F)n2)cc1 [Compound 123, (R)-2-amino-3-((2-(1-(6-((S)-2-((4-cyanophenethyl)carbamoyl)pyrrolidin-1-yl)-2-(trifluoromethyl)pyrimidin-4-yl)piperidin-4-yl)ethyl)amino)-3-oxopropane-1-sulfonic acid]
< 100 nM	100 to 999 nM	N#CCCN1CCN(c2cc(N3CCC[C@H]3C(=O)NCCc3ccc(C#N)cc3)nc(C(F)(F)F)n2)CC1 [Compound 32]
< 100 nM	100 to 999 nM	N#Cc1ccc(CCNC(=O)[C@@H]2CCCN2c2cc(N3CCC(CCNC(=O)NCCS(=O)(=O)NCC(=O)O)CC3)nc(C(F)(F)F)n2)cc1 [Compound 107]
< 100 nM	100 to 999 nM	N#Cc1ccc(CCNC(=O)[C@@H]2CCCN2c2cc(N3CCC(CCC(=O)NCCS(=O)(=O)O)CC3)nc(C(F)(F)F)n2)cc1 [Compound 56, (S)-2-(3-(1-(6-(2-((4-cyanophenethyl)carbamoyl)pyrrolidin-1-yl)-2-(trifluoromethyl)pyrimidin-4-yl)piperidin-4-yl)propanamido)ethanesulfonic acid]
< 100 nM	100 to 999 nM	N#Cc1ccc(CCNC(=O)[C@@H]2CCN2c2cc(N3CCC(CCNC(=O)NCCNC(=N)N)CC3)nc(C(F)(F)F)n2)cc1 [Compound 286, (S)-N-(4-cyanophenethyl)-1-(6-(4-(2-(3-(2-guanidinoethyl)-ureido)ethyl)piperidin-1-yl)-2-(trifluoromethyl)pyrimidin-4-yl)azetidine-2-carboxamide]

The next lines start with the molecule.

SMILES	EC50 (human TGR5 receptor)	EC50 (Mouse STC-1 cells)
N#Cc1ccc(CCNC(=O)[C@@H]2CCCN(c3cc(N4CCC(CO)CC4)nc(C(F)(F)F)n3)C2)cc1 [Compound 308, (R)—N-(4-cyanophenethyl)-1-(6-(4-(hydroxymethyl)piperidin-1-yl)-2-(trifluoromethyl)pyrimidin-4-yl)piperidine-3-carboxamide]	< 100 nM	100 to 999 nM
COc1cc(C(F)(F)F)ccc1CCNC(=O)[C@@H]1CCCN1c1cc(N2CCC(CCCC(=O)O)CC2)nc(C(F)(F)F)n1 [Compound 34]	< 100 nM	< 100 nM
COc1cc(C(F)(F)F)ccc1CCNC(=O)[C@@H]1CCN1c1cc(N2CCC(CCC(=O)NCCS(=O)(=O)O)CC2)nc(C(F)(F)F)n1 [Compound 259]	< 100 nM	100 to 999 nM
COc1cc(C(F)(F)F)ccc1CCNC(=O)[C@@H]1CCCN1c1cc(N2CCC(CCCC(=O)NCCS(=O)(=O)O)CC2)nc(C(F)(F)F)n1 [Compound 57, (S)-2-(4-(1-(6-(2-((2-methoxy-4-(trifluoromethyl)phenethyl)carbamoyl)-pyrrolidin-1-yl)-2-(trifluoromethyl)-pyrimidin-4-yl)piperidin-4-yl)butanamido)ethanesulfonic acid]	< 100 nM	< 100 nM
N#Cc1ccc(CCNC(=O)[C@@H]2CCN2c2cc(N3CCC(CCCC(=O)NCP(=O)(O)O)CC3)nc(C(F)(F)F)n2)cc1 [Compound 362, (S)-((4-(1-(6-(2-((4-cyanophenethyl)carbamoyl)azetidin-1-yl)-2-(trifluoromethyl)pyrimidin-4-yl)piperidin-4-yl)butanamido)methyl)phosphonic acid]	< 100 nM	< 100 nM
N#Cc1ccc(CCNC(=O)[C@@H]2CCN2c2cc(N3CCC(CCNC(=O)NCCOCCNC(=O)NCCC(=O)O)CC3)nc(C(F)(F)F)n2)cc1 [Compound 360, (S)-1-(1-(6-(2-((4-cyanophenethyl)carbamoyl)azetidin-1-yl)-2-(trifluoromethyl)pyrimidin-4-yl)piperidin-4-yl)-4,12-dioxo-8-oxa-3,5,11,13-tetraazahexadecan-16-oic acid]	< 100 nM	< 100 nM
N#Cc1ccc(CCNC(=O)[C@@H]2CCCN2c2cc(N3CCC(CCNc4c(NCCS(=O)(=O)O)c(=O)c4=O)CC3)nc(C(F)(F)F)n2)cc1 [Compound 367, (S)-2-((2-((2-(1-(6-(2-((4-cyanophenethyl)carbamoyl)pyrrolidin-1-yl)-2-(trifluoromethyl)pyrimidin-4-yl)piperidin-4-yl)ethyl)amino)-3,4-dioxocyclobut-1-en-1-yl)amino)ethanesulfonic acid]	< 100 nM	100 to 999 nM
N#Cc1ccc(CCNC(=O)[C@@H]2CCCN2c2cc(N3CCC(CCCC(=O)NCS(=O)(=O)O)CC3)cc(C(F)(F)F)n2)cc1 [Compound 198, (S)-(4-(1-(2-(2-((4-cyanophenethyl)carbamoyl)pyrrolidin-1-yl)-6-(trifluoromethyl)pyridin-4-yl)piperidin-4-yl)butanamido)methanesulfonic acid]	< 100 nM	100 to 999 nM
N#Cc1ccc(CCNC(=O)[C@@H]2CCCN2c2cc(N3CCC(CCNC(=O)NCP(=O)(O)O)CC3)nc(C(F)(F)F)n2)cc1 [Compound 372, (S)-((3-(2-(1-(6-(2-((4-cyanophenethyl)carbamoyl)pyrrolidin-1-yl)-2-(trifluoromethyl)pyrimidin-4-yl)piperidin-4-yl)ethyl)ureido)methyl)phosphonic acid]	< 100 nM	< 100 nM
CS(=O)(=O)NCCOCCNC(=O)NCCC1CCN(c2cc(N3CC[C@H]3C(=O)NCCc3ccc(C#N)cc3)nc(C(F)(F)F)n2)CC1 [Compound 292, (S)-N-(4-cyanophenethyl)-1-(6-(4-(2-(3-(2-(2-(methylsulfonylamino)-ethoxy)ethyl)ureido)ethyl)piperidin-1-yl)-2-(trifluoromethyl)pyrimidin-4-yl)azetidine-2-carboxamide]	< 100 nM	100 to 999 nM
COCC1CCN(c2cc(N3CCC[C@H]3C(=O)NCCc3ccc(C#N)cc3)nc(C(F)(F)F)n2)CC1 [Compound 24]	< 100 nM	100 to 999 nM
N=C(N)N[C@@H](CCC(=O)NCCCC1CCN(c2cc(N3CCC[C@H]3C(=O)NCCc3ccc(C(F)(F)F)cc3)nc(C(F)(F)F)n2)CC1)C(=O)O [Compound 133, (S)-2-guanidino-5-oxo-5-((3-(1-(2-(trifluoromethyl)-6-((S)-2-((4-(trifluoromethyl)phenethyl)carbamoyl)pyrrolidin-1-yl)pyrimidin-4-yl)piperidin-4-yl)propyl)amino)pentanoic acid]	< 100 nM	< 100 nM
N#Cc1ccc(CCNC(=O)[C@@H]2CCN2c2cc(N3CCC(CCO)CC3)nc(C(F)(F)F)n2)cc1 [Compound 223, (S)-N-(4-cyanophenethyl)-1-(6-(4-(2-hydroxyethyl)piperidin-1-yl)-2-(trifluoromethyl)pyrimidin-4-yl)azetidine-2-carboxamide]	< 100 nM	< 100 nM
O=C(O)CC[C@@H](NC(=O)CCCC1CCN(c2cc(N3CC[C@H]3C(=O)NCCc3ccc(C(F)(F)F)cc3)nc(C(F)(F)F)n2)CC1)C(=O)O [Compound 294, (R)-2-(4-(1-(2-(trifluoromethyl)-6-((S)-2-((4-(trifluoromethyl)-phenethyl)carbamoyl)azetidin-1-yl)pyrimidin-4-yl)piperidin-4-yl)butanamido)pentanedioic acid]	< 100 nM	< 100 nM
N#Cc1ccc(CCNC(=O)[C@@H]2CCCN2c2cc(N3CCC(CCCC(=O)NCCC(=O)O)CC3)nc(C(F)(F)F)n2)cc1 [Compound 104, (S)-3-(4-(1-(6-(2-((4-cyanophenethyl)carbamoyl)pyrrolidin-1-yl)-2-(trifluoromethyl)pyrimidin-4-yl)-piperidin-4-yl)butanamido)-propanoic acid]	< 100 nM	100 to 999 nM
N#Cc1ccc(CCNC(=O)[C@@H]2CCN2c2cc(N3CCC(CCCC(=O)NCS(=O)(=O)O)CC3)nc(C(F)(F)F)n2)cc1 [Compound 250, (S)-(4-(1-(6-(2-((4-cyanophenethyl)carbamoyl)azetidin-1-yl)-2-(trifluoromethyl)pyrimidin-4-yl)piperidin-4-yl)butanamido)methanesulfonic acid]	< 100 nM	< 100 nM
